Experimental data as given in patent US7872018B2, “Compounds and methods for kinase modulation, and indications therefor” (Plexxikon, Inc., priority 2006, dated 2011).

What was measured:
Jnk1 = Jnk1 (Homo sapiens, UniProt P45983); experiment: Jnk1 kinase activity assay; assay type: biochemical; details: under the test conditions employed; read-out: IC50 toward kinase Jnk1
FGFR = FGFR (Homo sapiens, UniProt P11362); experiment: FGFR kinase activity assay; assay type: biochemical; details: under the test conditions employed; read-out: IC50 toward kinase FGFR
Chain of FGFR (P11362 22-822): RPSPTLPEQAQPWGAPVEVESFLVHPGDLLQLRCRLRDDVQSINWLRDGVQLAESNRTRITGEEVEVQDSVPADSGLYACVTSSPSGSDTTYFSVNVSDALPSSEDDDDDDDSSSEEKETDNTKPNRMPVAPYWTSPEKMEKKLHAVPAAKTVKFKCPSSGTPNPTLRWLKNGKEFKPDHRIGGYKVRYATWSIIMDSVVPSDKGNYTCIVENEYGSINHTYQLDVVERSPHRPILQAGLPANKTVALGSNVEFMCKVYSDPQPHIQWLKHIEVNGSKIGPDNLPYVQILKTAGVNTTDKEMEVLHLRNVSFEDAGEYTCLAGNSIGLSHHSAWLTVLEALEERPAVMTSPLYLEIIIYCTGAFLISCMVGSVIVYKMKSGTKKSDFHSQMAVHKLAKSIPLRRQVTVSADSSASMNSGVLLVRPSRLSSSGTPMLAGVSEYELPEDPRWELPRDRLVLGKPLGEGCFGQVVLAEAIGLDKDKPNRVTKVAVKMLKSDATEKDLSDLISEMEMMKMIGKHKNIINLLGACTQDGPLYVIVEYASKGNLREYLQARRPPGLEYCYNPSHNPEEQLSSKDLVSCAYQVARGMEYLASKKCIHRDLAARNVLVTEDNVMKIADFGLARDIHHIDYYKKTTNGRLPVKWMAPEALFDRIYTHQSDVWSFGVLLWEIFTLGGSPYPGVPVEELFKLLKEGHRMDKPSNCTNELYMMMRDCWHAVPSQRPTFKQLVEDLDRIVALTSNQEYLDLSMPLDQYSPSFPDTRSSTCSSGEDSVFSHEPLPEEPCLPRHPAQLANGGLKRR

Kdr = Kdr (Homo sapiens, UniProt P35968); experiment: Kdr kinase activity assay; assay type: biochemical; details: under the test conditions employed; read-out: IC50 toward kinase Kdr
Chain of Kdr (P35968 20-1356): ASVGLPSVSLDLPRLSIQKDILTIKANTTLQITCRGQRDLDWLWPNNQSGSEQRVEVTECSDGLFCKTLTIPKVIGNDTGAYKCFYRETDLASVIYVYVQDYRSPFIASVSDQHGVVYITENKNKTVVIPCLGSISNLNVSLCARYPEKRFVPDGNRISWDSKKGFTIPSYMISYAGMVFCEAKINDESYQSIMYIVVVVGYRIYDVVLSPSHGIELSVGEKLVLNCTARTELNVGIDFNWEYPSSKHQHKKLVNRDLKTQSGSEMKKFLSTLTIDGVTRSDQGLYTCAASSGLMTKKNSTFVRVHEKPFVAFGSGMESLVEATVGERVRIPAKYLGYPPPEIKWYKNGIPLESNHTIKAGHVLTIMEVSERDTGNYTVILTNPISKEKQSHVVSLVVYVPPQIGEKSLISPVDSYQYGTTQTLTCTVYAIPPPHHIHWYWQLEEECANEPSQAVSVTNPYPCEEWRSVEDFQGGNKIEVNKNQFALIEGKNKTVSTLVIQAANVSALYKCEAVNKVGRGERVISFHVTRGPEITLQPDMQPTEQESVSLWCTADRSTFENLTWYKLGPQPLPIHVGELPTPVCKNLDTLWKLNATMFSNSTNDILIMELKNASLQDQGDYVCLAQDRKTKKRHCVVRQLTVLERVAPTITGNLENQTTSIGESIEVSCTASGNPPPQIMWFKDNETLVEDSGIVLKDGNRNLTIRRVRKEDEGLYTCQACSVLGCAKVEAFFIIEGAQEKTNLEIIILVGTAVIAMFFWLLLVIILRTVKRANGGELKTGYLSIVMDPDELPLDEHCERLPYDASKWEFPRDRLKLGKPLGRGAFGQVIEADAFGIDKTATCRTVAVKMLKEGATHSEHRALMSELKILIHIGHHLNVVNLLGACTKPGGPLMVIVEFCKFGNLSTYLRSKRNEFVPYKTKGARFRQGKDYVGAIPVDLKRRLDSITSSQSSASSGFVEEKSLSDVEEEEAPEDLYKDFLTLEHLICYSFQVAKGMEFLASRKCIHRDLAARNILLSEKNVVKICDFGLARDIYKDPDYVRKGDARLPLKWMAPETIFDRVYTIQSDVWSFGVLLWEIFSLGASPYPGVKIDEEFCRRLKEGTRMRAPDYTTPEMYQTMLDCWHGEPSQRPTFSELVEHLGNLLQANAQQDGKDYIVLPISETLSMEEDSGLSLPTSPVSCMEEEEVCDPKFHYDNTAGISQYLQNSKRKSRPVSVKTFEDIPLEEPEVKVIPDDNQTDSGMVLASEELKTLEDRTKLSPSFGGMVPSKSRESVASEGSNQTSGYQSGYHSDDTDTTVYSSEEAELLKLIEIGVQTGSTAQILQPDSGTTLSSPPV

Kit = target: T1, Kit (Homo sapiens, UniProt P10721); experiment: c-kit biochemical assay (AlphaScreen or 33P-ATP); details: under the test conditions employed; read-out: IC50 toward kinase Kit
T1 construct: P1332.N6 BI PTP KIT M552-K948-X COD; made in house; host or cells: E. coli BL21(DE3)RIL, co-expressed with PTP1B
T1 sequence (P10721 552-948): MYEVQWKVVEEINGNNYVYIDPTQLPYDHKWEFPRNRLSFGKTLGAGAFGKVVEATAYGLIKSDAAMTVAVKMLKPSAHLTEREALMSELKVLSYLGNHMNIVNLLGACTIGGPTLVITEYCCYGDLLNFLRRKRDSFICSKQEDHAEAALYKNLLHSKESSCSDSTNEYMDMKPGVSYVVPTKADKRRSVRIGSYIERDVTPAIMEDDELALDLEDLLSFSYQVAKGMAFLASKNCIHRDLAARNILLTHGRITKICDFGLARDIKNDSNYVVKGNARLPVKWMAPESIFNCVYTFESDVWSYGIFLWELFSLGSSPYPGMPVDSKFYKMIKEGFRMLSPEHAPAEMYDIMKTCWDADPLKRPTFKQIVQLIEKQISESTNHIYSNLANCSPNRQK
In short: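 Kinase activity read by AlphaScreen or 33P-ATP incorporation, with c-kit enzyme at 1 ng per sample. The enzyme was either commercial or a recombinant human kit construct made from a gene-synthesized coding sequence.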

Fms = target: T2, Fms (Homo sapiens, UniProt P07333); experiment: Fms biochemical assay (AlphaScreen or 33P-ATP); details: under the test conditions employed; read-out: IC50 toward kinase Fms
T2 construct: purchased Upstate Biotech 14-551
T2 sequence (P07333 20-972): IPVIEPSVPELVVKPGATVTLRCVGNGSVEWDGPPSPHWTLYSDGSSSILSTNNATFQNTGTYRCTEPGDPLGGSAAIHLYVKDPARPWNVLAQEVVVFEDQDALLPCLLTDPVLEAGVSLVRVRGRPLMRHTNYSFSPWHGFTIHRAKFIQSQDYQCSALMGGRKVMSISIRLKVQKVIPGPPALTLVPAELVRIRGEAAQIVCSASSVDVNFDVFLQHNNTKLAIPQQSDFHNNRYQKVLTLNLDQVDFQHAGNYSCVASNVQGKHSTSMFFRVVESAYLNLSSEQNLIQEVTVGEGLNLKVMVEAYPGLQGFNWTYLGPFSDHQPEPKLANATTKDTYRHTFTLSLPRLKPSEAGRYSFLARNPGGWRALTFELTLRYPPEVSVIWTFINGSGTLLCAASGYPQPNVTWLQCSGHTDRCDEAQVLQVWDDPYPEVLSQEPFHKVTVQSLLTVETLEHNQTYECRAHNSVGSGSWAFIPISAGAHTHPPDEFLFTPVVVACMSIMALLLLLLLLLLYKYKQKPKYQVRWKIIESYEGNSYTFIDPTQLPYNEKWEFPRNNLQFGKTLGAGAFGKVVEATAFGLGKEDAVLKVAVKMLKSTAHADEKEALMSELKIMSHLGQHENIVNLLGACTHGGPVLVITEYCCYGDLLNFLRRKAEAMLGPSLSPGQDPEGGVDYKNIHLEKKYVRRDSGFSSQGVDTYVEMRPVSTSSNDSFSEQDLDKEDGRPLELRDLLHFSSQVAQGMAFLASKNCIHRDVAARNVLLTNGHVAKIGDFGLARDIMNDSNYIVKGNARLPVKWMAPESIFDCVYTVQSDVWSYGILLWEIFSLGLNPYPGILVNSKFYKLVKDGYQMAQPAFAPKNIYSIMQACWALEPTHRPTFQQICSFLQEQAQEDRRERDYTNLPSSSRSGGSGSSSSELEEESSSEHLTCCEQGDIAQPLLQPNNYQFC
Source text: Each sample was at 5% DMSO.

Met = Met (Homo sapiens, UniProt P08581); experiment: Met kinase activity assay; assay type: biochemical; details: under the test conditions employed; read-out: IC50 toward kinase Met
Src = Src (Homo sapiens, UniProt P12931); experiment: Src kinase activity assay; assay type: biochemical; details: under the test conditions employed; read-out: IC50 toward kinase Src
Chain of Src (P12931 whole entry): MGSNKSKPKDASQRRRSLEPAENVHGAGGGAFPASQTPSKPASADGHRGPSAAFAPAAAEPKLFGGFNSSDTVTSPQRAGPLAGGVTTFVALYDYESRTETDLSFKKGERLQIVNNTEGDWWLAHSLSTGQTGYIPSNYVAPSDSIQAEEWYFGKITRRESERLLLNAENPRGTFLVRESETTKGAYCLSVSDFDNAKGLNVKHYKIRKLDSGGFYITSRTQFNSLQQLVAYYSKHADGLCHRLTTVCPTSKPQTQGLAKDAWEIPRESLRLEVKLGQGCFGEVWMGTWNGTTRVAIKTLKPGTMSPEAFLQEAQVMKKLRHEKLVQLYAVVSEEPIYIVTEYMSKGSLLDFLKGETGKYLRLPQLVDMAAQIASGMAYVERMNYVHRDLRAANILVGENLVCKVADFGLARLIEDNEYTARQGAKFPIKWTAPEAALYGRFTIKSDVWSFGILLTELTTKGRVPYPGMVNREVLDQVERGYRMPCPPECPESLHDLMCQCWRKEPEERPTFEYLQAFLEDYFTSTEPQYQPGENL

Flt1 = Flt1 (Homo sapiens, UniProt P17948); experiment: Flt1 kinase activity assay; assay type: biochemical; details: under the test conditions employed; read-out: IC50 toward kinase Flt1
B-Raf V600E/T529I = B-Raf V600E/T529I (Homo sapiens, UniProt P15056, T529I/V600E); experiment: B-Raf V600E/T529I kinase activity assay; assay type: biochemical; details: under the test conditions employed; read-out: IC50 toward kinase B-Raf V600E/T529I
B-Raf = B-Raf (Homo sapiens, UniProt P15056); experiment: B-Raf kinase activity assay; assay type: biochemical; details: under the test conditions employed; read-out: IC50 toward kinase B-Raf

Chain of Jnk1 (P45983 whole entry): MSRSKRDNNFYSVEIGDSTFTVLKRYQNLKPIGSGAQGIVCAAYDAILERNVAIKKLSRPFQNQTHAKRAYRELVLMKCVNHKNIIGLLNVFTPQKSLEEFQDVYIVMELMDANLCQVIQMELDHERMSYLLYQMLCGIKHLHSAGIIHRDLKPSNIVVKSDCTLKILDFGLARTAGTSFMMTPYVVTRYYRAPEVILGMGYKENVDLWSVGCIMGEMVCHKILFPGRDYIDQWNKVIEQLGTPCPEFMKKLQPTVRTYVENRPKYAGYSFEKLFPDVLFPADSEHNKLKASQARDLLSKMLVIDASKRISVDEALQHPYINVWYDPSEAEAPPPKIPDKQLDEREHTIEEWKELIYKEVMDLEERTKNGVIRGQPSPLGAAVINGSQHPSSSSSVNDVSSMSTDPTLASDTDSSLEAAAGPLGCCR

| IC50 (Jnk1) | IC50 (FGFR) | IC50 (Kdr) | IC50 (Kit) | IC50 (Fms) | IC50 (Met) | IC50 (Src) | IC50 (Flt1) | IC50 (B-Raf V600E/T529I) | IC50 (B-Raf) | SMILES |
| --- | --- | --- | --- | --- | --- | --- | --- | --- | --- | --- |
| ≤ 10 µM | – | – | – | – | – | – | – | – | – | Fc1cc(Cc2c[nH]c3ncccc23)ccc1OCc1ccc(Cl)cc1 [P-1896, 3-[4-(4-Chloro-benzyloxy)-3-fluoro-benzyl]-1H-pyrrolo[2,3-b]pyridine] |
| – | ≤ 10 µM | ≤ 10 µM | ≤ 10 µM | ≤ 10 µM | ≤ 10 µM | – | – | – | – | COCCOc1ccc(F)c(Cc2c[nH]c3ncc(Cl)cc23)c1Cl [P-2157, 5-Chloro-3-[2-chloro-6-fluoro-3-(2-methoxy-ethoxy)-benzyl]-1H-pyrrolo[2,3-b]pyridine] |
| – | – | ≤ 10 µM | ≤ 10 µM | ≤ 10 µM | – | ≤ 10 µM | ≤ 10 µM | ≤ 10 µM | ≤ 10 µM | Cn1cc(-c2cnc3[nH]cc(C(=O)c4c(Cl)ccc(OCC(F)(F)F)c4Cl)c3c2)cn1 [P-2151, [2,6-Dichloro-3-(2,2,2-trifluoro-ethoxy)-phenyl]-[5-(1-methyl-1H-pyrazol-4-yl)-1H-pyrrolo[2,3-b]pyridin-3-yl]-methanone] |
| ≤ 10 µM | – | – | – | – | – | – | – | – | – | O=C(c1ccc(OCc2ccc(Cl)cc2)c(F)c1)c1c[nH]c2ncccc12 [P-1897, [4-(4-chloro-benzyloxy)-3-fluoro-phenyl]-(1H-pyrrolo[2,3-b]pyridin-3-yl)-methanone] |
